# Reference: patent US5688938A, “Calcium receptor-active molecules” (priority 1995, dated 1997)
# Entries after “also recorded” stand apart in the source; their conditions may differ. Read-outs that look alike come from different tables or passages of the source.
# Columns and labels:
# [1] = target: T1, parathyroid cell calcium receptor (Homo sapiens, UniProt P41180); test: [Ca^2+]i (fura-2) in human parathyroid cells; type: cell-based; conditions: 1 μM
# T1 construct: Dissociated parathyroid cells were prepared from a parathyroid adenoma obtained by surgery from a patient with primary hyperparathyroidism; endogenous in cells; host or cells: primary dissociated human parathyroid cells (adenoma or hyperplastic tissue from surgery)
# T1 sequence (P41180 20-1078): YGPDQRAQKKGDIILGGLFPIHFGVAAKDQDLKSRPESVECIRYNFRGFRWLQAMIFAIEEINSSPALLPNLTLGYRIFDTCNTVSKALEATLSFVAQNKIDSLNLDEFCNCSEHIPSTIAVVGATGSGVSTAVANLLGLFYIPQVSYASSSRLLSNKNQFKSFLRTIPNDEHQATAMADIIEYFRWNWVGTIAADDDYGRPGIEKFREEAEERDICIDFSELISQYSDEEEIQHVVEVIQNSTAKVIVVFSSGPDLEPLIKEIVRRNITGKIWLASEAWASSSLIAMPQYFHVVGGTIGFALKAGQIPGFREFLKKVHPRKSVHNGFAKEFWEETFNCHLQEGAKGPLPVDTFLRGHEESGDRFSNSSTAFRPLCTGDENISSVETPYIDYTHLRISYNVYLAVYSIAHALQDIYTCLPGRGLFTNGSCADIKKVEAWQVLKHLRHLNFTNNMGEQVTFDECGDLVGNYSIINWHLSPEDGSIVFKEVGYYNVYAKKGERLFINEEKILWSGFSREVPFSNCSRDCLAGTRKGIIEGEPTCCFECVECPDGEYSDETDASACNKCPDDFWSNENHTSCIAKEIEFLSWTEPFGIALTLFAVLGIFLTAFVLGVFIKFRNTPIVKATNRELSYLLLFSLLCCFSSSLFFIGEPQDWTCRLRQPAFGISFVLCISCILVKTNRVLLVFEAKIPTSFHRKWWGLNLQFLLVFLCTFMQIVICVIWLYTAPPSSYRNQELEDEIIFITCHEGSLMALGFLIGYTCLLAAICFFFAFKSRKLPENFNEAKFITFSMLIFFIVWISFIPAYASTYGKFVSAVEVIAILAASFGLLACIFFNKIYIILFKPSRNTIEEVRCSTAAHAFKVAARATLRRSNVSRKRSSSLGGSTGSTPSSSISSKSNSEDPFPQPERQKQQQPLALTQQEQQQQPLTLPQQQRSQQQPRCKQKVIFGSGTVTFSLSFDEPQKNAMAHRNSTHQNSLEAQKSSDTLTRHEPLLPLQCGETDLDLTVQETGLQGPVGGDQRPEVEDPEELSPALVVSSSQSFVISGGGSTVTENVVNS
# Description: (§1) This section describes procedures used to obtain and treat parathyroid cells from calves and humans. […] Human parathyroid glands, were obtained from patients undergoing surgical removal of parathyroid tissue for primary or uremic hyperparathyroidism (uremic HPT), and were treated similarly to bovine tissue.
# Dissociated parathyroid cells were prepared from a parathyroid adenoma obtained by surgery from a patient with primary hyperparathyroidism.
# net positive charge = type: physicochemical; conditions: for Net (+) Charge: Table 1, at physiological pH
# [2] = tested on: osteoclast calcium receptor; test: [Ca^2+]i (indo-1) in rat osteoclasts; type: cell-based
# bovine parathyroid cells = test: PTH secretion from bovine parathyroid cells; type: cell-based
# Description: In most experiments, cells loaded with fura-2 were also used in studies of PTH secretion.
# PTH secretion was measured by first suspending cells in PCB containing 0.5 mM CaCl2 and 0.1% BSA.
# [3] = target: T2, parathyroid cell calcium receptor (Bos taurus, UniProt P35384); test: cell-based; type: cell-based; conditions: for potentiation of mobilization of intracellular Ca^2+ elicited by extracellular divalent cations / change in [Ca^2+]i at low extracellular Ca^2+ / increase in [Ca^2+]i at intermediate extracellular Ca^2+: 100 μM; for change in [Ca^2+]i at low extracellular Ca^2+: 0.5 mM extracellular Ca^2+; for increase in [Ca^2+]i at intermediate extracellular Ca^2+: 1-[…] extracellular Ca^2+; for effect on intracellular Ca^2+: 500 μM
# T2 sequence (P35384 21-1085 limits assumed): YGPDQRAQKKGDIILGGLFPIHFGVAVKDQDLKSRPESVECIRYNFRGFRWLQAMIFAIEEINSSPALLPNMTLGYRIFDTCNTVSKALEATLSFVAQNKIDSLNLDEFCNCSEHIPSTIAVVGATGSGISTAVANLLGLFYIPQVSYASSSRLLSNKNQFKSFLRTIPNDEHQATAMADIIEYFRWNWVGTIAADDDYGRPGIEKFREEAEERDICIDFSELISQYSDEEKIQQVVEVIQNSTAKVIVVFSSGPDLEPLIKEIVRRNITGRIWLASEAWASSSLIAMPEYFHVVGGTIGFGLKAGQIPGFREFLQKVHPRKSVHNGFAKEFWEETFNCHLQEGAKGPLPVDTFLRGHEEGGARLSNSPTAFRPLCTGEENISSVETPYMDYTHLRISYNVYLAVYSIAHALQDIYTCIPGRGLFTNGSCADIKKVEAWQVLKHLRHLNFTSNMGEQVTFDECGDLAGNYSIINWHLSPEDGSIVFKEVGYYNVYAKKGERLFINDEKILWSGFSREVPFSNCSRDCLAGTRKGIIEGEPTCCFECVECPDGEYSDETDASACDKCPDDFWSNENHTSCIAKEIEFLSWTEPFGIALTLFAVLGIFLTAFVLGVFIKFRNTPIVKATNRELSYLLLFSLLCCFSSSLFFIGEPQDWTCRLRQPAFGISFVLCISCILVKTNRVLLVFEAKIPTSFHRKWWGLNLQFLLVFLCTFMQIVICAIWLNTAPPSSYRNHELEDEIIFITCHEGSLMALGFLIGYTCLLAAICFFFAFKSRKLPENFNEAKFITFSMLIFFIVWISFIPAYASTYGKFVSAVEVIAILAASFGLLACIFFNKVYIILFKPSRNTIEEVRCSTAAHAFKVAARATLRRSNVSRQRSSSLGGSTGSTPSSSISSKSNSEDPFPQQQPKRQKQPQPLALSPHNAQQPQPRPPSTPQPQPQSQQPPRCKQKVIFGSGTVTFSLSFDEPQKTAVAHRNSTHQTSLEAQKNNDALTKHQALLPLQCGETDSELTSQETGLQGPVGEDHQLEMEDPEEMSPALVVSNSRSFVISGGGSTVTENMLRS
# Description: For example,.bovine parathyroid cells loaded with fura-2 are initially suspended in buffer containing 0.5 mM CaCl2. A test substance is added to the cuvette in a small volume (5-15 μl) and changes in the fluorescence signal are measured. Cumulative increases in the concentration of the test substance are made in the cuvette until some predetermined concentration is achieved or no further changes in fluorescence are noted.
# as §1
# Glands were trimmed of excess fat and connective tissue and then minced with fine scissors into cubes approximately 2-3 mm on a side. Dissociated parathyroid cells were prepared by collagenase digestion and then purified by centrifugation in Percoll buffer. The resultant parathyroid cell preparation was essentially devoid of red blood cells, adipocytes, and capillary tissue as assessed by phase contrast microscopy and Sudan black B staining. Dissociated and purified parathyroid cells were present as small clusters containing 5 to 20 cells.
# The cells were then transferred to plastic flasks (75 or 150 cm^2 ; Falcon) and incubated overnight at 37° C. in a humid atmosphere of 5% CO2. No serum is added to these overnight cultures, since its presence allows the cells to attach to the plastic, undergo proliferation, and dedifferentiate. Cells cultured under the above conditions were readily removed from the flasks by decanting, and show the same viability as freshly prepared cells.
# The cells were then pelleted, resuspended in the same buffer, but lacking the ester, and incubated a further 15 minutes at 37° C. The cells were subsequently washed twice with PCB containing 0.5 mM CaCl2 and 0.5% BSA and maintained at room temperature (about 20° C.). Immediately before use, the cells were diluted five-fold with prewarmed 0.5mM CaCl2 -PCB to obtain a final BSA concentration of 0.1%. The concentration of cells in the cuvette used for fluorescence recording was 1-2×10^6 /ml.
# The fluorescence of indicator-loaded cells was measured at 37° C. in a spectrofluorimeter (Biomedical Instrumentation Group, University of Pennsylvania, Philadelphia, Pa.) equipped with a thermostated cuvette holder and magnetic stirrer using excitation and emission wavelengths of 340 and 510 nm, respectively. […] Leakage of dye is dependent on temperature and most occurs within the first 2 minutes after warming the cells in the cuvette. Dye leakage increases only very slowly thereafter. To correct the calibration for dye leakage, cells were placed in the cuvette and stirred at 37° C. for 2-3 minutes. The cell suspension was then removed, the cells pelleted, and the supernatant returned to a clean cuvette. […] This estimate was subtracted from the apparent Fmin.
# Dissociated bovine parathyroid cells were purified on gradients of Percoll and cultured overnight in serum-free medium. […] That is,
# [4] = target: T3, bovine parathyroid cell calcium receptor (Bos taurus, UniProt P35384); test: Cl^- current in Xenopus oocytes expressing BoPCaR 1; type: cell-based; conditions: 1 mM extracellular Ca^2+
# T3 construct: expressed in transfected cells; host or cells: Xenopus laevis oocytes injected with cRNA from BoPCaR 1
# T3 sequence (P35384 21-1085 limits assumed): T2 sequence (P35384 21-1085 limits assumed)
# Description: These responses are mediated by the following series of biochemical events:
# Xenopus oocytes were injected with BoPCaR 1, the 5.3 Kb cDNA encoding a bovine parathyroid cell calcium receptor as described in Example 25. After two to three days, Cl^- currents were examined in the oocytes using a two-electrode voltage clamp.
# Xenopus oocytes were injected with BoPCaR 1 as described in Example 25. After two to three days, Cl^- currents were examined in the oocytes using two electrode voltage clamp.
# [5] = tested on: Ca^2+ influx in parathyroid cells; test: influx of extracellular Ca^2+ in bovine parathyroid cells; type: cell-based; conditions: for [Ca^2+]i: 100 to 1000 μM, 2 mM CaCl2; for effect on increases in [Ca^2+]i elicited by extracellular Ca^2+: pretreatment
# [6] = serum/blood calcium, PTH, albumin and phosphate in rats, intraperitoneal; type: in vivo, rat; conditions: rat, i.p.
# Description: Compounds shown to activate the bovine parathyroid cell calcium receptor in vitro were tested for hypocalcemic activity in vivo. […] […] […] Serum total calcium, albumin and phosphate were measured by techniques well known in the art.
# [7] = target: T2, parathyroid cell calcium receptor; test: block of extracellular Ca^2+-evoked increases in [Ca^2+]i in bovine parathyroid cells (calcilytic); type: cell-based
# [8] = Table 7, parathyroid cell calcium receptor, read-out: EC50
molecule,measurement,setting,value
COCCOC(=O)C1=C(C)NC(C)=C(C(=O)OC(C)C)C1c1cccc([N+](=O)[O-])c1 (stereo not shown) [nimodipine],effect on sustained increases in [Ca^2+]i elicited by extracellular Mg^2+,[1],not affected by nimodipine
NCCCCNCCCN [Spermidine],Net (+) Charge,net positive charge,+3
same,increase in [Ca^2+]i relative to maximal extracellular Ca^2+,"[2]; osteoclasts, 1000 µM",about 10%
Gentamicin,Net (+) Charge,net positive charge,+5
same,net positive charge at pH 7.3,net positive charge,+5
NCCCNCCCCNCCCN [Spermine],inhibition of PTH secretion,bovine parathyroid cells,inhibited PTH secretion to the same extent as extracellular Ca^2+
"N=C(N)NCCC[C@H](N)C(=O)NCCCNCCCNCCCCCNC(=O)[C@H](CC(N)=O)NC(=O)Cc1c[nH]c2cccc(O)c12 [Argiotoxin-659, reference compound]",Net (+) Charge,net positive charge,+4
same,EC50,[3],300 µM
same,increases in [Ca^2+]i,[3]; 100 to 300 μM,evoked transient increases in [Ca^2+ ]i
same,EC50,"[3]; EC50 for mobilizing intracellular Ca^2+, bovine parathyroid cells",300 µM
"NCCCNCCCCNCCCNCCCN(O)CCCNC(=O)Cc1c[nH]c2ccccc12 [NPS 017, reference compound]",Cl^- current,[4],oscillatory increases in the Cl^- current
"COc1ccc(CCN(C)CCCC(C#N)(c2cc(OC)c(OC)c(OC)c2)C(C)C)cc1OC [Compound D-600, reference compound]",block of influx of extracellular Ca^2+,[5]; 100 μM,blocked the influx
same,potentiation of mobilization of intracellular Ca^2+ elicited by extracellular divalent cations,[3],potentiated the mobilization
same,change in [Ca^2+]i at low extracellular Ca^2+,[3],evoked no change in [Ca^2+ ]i
same,increase in [Ca^2+]i at intermediate extracellular Ca^2+,[3],"small, but robust increase"
"CCC[C@@H]1C[C@@H](C(=O)N[C@@H]([C@H]2O[C@H](SC)[C@H](O)[C@@H](O)[C@H]2O)[C@@H](C)O)N(C)C1 [lincomycin, reference compound]",net positive charge at pH 7.3,net positive charge,+1
same,effect on intracellular Ca^2+,[3],without effect
"CCN(CC)CCCCCCCCOC(=O)c1cc(OC)c(OC)c(OC)c1 [TMB-8, reference compound]",block of influx of extracellular Ca^2+,[5]; 100 μM,blocked the influx
same,potentiation of mobilization of intracellular Ca^2+ elicited by extracellular divalent cations,[3],potentiated the mobilization; also recorded: potentiated transient increases in [Ca^2+ ]i
same,change in [Ca^2+]i at low extracellular Ca^2+,[3],evoked no change in [Ca^2+ ]i
same,increase in [Ca^2+]i at intermediate extracellular Ca^2+,[3],"small, but robust increase"
NCCCN1CCCN(CCCN)CCN(CCCN)CCCN(CCCN)CC1 [NPS 383],Net (+) Charge,net positive charge,+8
NC[C@H]1O[C@H](O[C@H]2[C@H](O)[C@@H](O[C@H]3O[C@H](CO)[C@@H](O)[C@H](N)[C@H]3O)[C@H](N)C[C@@H]2N)[C@H](N)[C@@H](O)[C@@H]1O [Bekanamycin],Net (+) Charge,net positive charge,+5
same,net positive charge at pH 7.3,net positive charge,+5
"NCCCN(CCCN)CCCNCCCCNCCCN(CCCN)CCCN [NPS 382, N^1, N^1, N^5, N^14, N^14-tetrakis-(3-aminopropyl)spermine]",Net (+) Charge,net positive charge,+8
COc1cccc(C(C)NCCCc2ccccc2)c1 (racemic) [NPS 467],reduction in serum or whole blood Ca^2+,[6],dose-dependent reduction in serum or whole blood Ca^2+
same,time to return toward control levels,[6],24 h
same,change in serum albumin or phosphate,[6]; all doses,no change in serum albumin or phosphate levels
same,circulating PTH,[6]; preliminary studies,dose-dependent reduction in circulating levels of PTH
COc1ccc(CC(=O)NCCCCCCCCCCCCN)cc1OC [NPS 384],block of influx of extracellular Ca^2+,[5]; 300 μM,blocked influx of extracellular Ca^2+
same,[Ca^2+]i,[5],prompt fall in [Ca^2+ ]i
same,effect on increases in [Ca^2+]i elicited by extracellular Ca^2+,[5],"depresses steady-state, but not transient increases in [Ca^2+ ]i"
same,increase in [Ca^2+]i,[3]; 300 μM,did not evoke an increase in [Ca^2+ ]i
same,potentiation of transient increases in [Ca^2+]i,[3]; 300 μM,fails to do so
NCCCCCCCCCCCCNC(=O)Cc1ccc(O)cc1O [NPS 021],change in [Ca^2+]i by the compound itself,[7]; 0.5 mM extracellular Ca^2+,does not by itself cause any change in [Ca^2+ ]i
same,IC50,[7]; bovine parathyroid cells,~200 µM
same,IC100,[7]; read-out: concentration abolishing the increase in [Ca^2+]i evoked by extracellular Ca^2+,~500 µM
[H]/N=C(/N)N[C@H]1[C@H](O)[C@@H](O)[C@H](O[C@@H]2O[C@@H](C)[C@](O)(C=O)[C@H]2O[C@@H]2O[C@@H](CO)[C@H](O)[C@@H](O)[C@@H]2NC)[C@@H](N/C(N)=N\[H])[C@@H]1O [Streptomycin],Net (+) Charge,net positive charge,+3
same,net positive charge at pH 7.3,net positive charge,+3
"NCCNCCNCCNCCN [TEPA, Tetraethylenepentamine]",Net (+) Charge,net positive charge,+5
"NCCNCCNCCN [TETA, Triethylenetramine]",Net (+) Charge,net positive charge,+4
"NCCCCCCCCCCCCN [DADD, 1,12-diaminododecane]",[Ca^2+]i,[5],prompt fall in [Ca^2+ ]i
same,effect on increases in [Ca^2+]i elicited by extracellular Ca^2+,[5],"depresses steady-state, but not transient increases in [Ca^2+ ]i"
same,Net (+) Charge,net positive charge,+2
"NCCCN(CCCN)CCCN(CCCN)CCCCN(CCCN)CCCN(CCCN)CCCN [NPS 381, N^1, N^1, N^5, N^10, N^14, N^14-hexakis-(3-aminopropyl) spermine]",Net (+) Charge,net positive charge,+10
"NC[C@H]1O[C@H](O[C@H]2[C@H](O)[C@@H](O[C@H]3O[C@H](CO)[C@@H](O)[C@H](N)[C@H]3O)[C@H](N)C[C@@H]2N)[C@H](O)[C@@H](O)[C@@H]1O [Kanamycin, reference compound]",net positive charge at pH 7.3,net positive charge,~+4.5
same,effect on intracellular Ca^2+,[3],without effect
C[C@@H](NCCC(c1ccccc1)c1ccccc1)c1ccccc1 [R-Fendiline],EC50,"[3]; Table 6, bovine parathyroid cells, read-out: EC50 PARATHYROID",9 µM
same,EC50,[3]; [8],9 µM
CC(NCCCc1ccccc1)c1ccc(Cl)cc1 (racemic) [Compound 1H],EC50,"[2]; Table 6, rat osteoclasts",250 µM
COc1cccc([C@@H](C)NCCCc2ccc(F)cc2)c1 [Compound 4P],EC50,"[3]; Table 8 (arylalkylamine calcimimetics), parathyroid cell calcium receptor, read-out: EC50",1.6 µM
CC(NCCCCc1ccccc1)c1ccccc1 (stereo not shown) [Compound 1S],EC50,[3]; [8],128 µM
